One assay concerns the target T1, 5HT-Transporter (Homo sapiens, UniProt P31645).
T1 construct: Human platelet membranes (Oceanix Biosciences Corporation, Hanover, Md., USA) were thawed; tissue Oceanix Biosciences Corporation, Hanover, Md., USA; host or cells: human platelet membranes
Put plainly: Binding experiment for the 5HT-transporter ([3H]paroxetine, human platelet membranes). As to conditions: [3H]paroxetine 0.5 nM; for IC50: read-out: h-5HTT pIC50 (converted). The procedure:
(§1) The interaction of a compound of Formula (I) with α2-adrenoceptor receptors was assessed in in vitro radioligand binding experiments. In general, a low concentration of a radioligand with a high binding affinity for a particular receptor or transporter is incubated with a sample of a tissue preparation enriched in a particular receptor or transporter or with a preparation of cells expressing cloned human receptors in a buffered medium. During the incubation, the radioligand binds to the receptor or transporter. When equilibrium of binding is reached, the receptor bound radioactivity is separated from the non-bound radioactivity, and the receptor- or transporter-bound activity is counted. The interaction of the test compounds with the receptor is assessed in competition binding experiments. Various concentrations of the test compound are added to the incubation mixture containing the receptor- or transporter preparation and the radioligand. The test compound in proportion to its binding affinity and its concentration inhibits binding of the radioligand. The radioligand used for hα2A and hα2C receptor binding was [^3H]-raulwolscine.
Human platelet membranes (Oceanix Biosciences Corporation, Hanover, Md., USA) were thawed, diluted in buffer (Tris-HCl 50 mM, 120 mM NaCl and 5 mM KCl) and quickly (max 3 s) homogenised with an Ultraturrax homogenizer. […] Incubation was stopped by rapid filtration of the incubation mixture over GF/B filters, pre-wetted with 0.1% polyethyleneamine, using a Filtermate196 harvester (Packard, Meriden, Conn.). Filters were rinsed extensively with ice-cold buffer and radioactivity on the filters was counted in a Topcount liquid scintillation counter (Packard, Meriden, Conn.). Data were expressed as cpm. Imipramine (at 1 μM final concentration) was used to determine the non-specific binding.
(§2) Data from assays in the presence of compound were calculated as a percentage of total binding measured in the absence of test compound. Inhibition curves, plotting percent of total binding versus the log value of the concentration of the test compound, were automatically generated, and sigmoidal inhibition curves were fitted using non-linear regression. The pIC50 values of test compounds were derived from individual curves.

The target of a further assay is T2, hα2A receptor (Homo sapiens, UniProt P08913).
T2 construct: expressed in transfected cells; host or cells: CHO cells, stably transfected; membrane preparation
T2 sequence (P08913 1-465): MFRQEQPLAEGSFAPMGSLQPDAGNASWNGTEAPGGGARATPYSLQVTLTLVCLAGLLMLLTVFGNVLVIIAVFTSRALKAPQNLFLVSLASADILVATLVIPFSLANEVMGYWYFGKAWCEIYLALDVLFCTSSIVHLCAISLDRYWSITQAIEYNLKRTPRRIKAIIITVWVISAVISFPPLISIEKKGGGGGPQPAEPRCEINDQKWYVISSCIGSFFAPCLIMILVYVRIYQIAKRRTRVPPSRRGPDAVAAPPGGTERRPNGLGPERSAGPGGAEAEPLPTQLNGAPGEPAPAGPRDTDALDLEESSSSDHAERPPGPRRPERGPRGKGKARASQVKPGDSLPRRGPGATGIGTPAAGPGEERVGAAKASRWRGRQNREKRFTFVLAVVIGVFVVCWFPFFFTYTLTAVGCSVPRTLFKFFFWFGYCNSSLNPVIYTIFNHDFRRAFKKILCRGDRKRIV
The assay can be described thus: Radioligand binding experiment for α2A-adrenoceptor ([3H]raulwolscine, CHO cell membranes). As to conditions: [3H]raulwolscine binding; for IC50: read-out: h-α2A pIC50 (converted). The procedure: as §1
(§3) CHO cells, stabile transfected with human adrenergic-α2A and α2C receptor cDNA, were cultured in Dulbecco's Modified Eagle's Medium (DMEM)/Nutrient mixture Ham's F12 (ratio 1:1)(Gibco, Gent-Belgium) supplemented with 10% heat inactivated fetal calf serum (Life Technologies, Merelbeke-Belgium) and antibiotics (100 IU/ml penicillin G, 100 μg/ml streptomycin sulphate, 110 μg/ml pyruvic acid and 100 μg/ml L-glutamine). One day before collection, cells were induced with 5 mM sodiumbutyrate. Upon 80-90% of confluence, cells were scraped in phosphate buffered saline without Ca^2+ and Mg^2+ and collected by centrifugation at 1500×g for 10 minutes. The cells were homogenised in Tris-HCl 50 mM using an Ultraturrax homogenizer and centrifuged for 10 minutes at 23,500×g. The pellet was washed once by resuspension and rehomogenization and the final pellet was resuspended in Tris-HCl, divided in 1 ml aliquots and stored at −70° C.
(§4) Membranes were thawed and re-homogenized in incubation buffer (glycylglycine 25 mM, pH 8.0). […] Filters were rinsed extensively with ice-cold rinsing buffer (Tris-HCl 50 mM pH 7.4). Filter-bound radioactivity was determined by scintillation counting in a Topcount (Packard, Meriden, Conn.) and results were expressed as counts per minute (cpm). Non-specific binding was determined in the presence of 1 μM oxymetazoline for the hα2A receptor and 1 μM spiroxatrine for hα2C receptor.
as §2

A further assay deals with T3, hα2C receptor (Homo sapiens, UniProt P18825).
T3 construct: expressed in transfected cells; host or cells: CHO cells, stably transfected; membrane preparation
T3 sequence (P18825 1-462): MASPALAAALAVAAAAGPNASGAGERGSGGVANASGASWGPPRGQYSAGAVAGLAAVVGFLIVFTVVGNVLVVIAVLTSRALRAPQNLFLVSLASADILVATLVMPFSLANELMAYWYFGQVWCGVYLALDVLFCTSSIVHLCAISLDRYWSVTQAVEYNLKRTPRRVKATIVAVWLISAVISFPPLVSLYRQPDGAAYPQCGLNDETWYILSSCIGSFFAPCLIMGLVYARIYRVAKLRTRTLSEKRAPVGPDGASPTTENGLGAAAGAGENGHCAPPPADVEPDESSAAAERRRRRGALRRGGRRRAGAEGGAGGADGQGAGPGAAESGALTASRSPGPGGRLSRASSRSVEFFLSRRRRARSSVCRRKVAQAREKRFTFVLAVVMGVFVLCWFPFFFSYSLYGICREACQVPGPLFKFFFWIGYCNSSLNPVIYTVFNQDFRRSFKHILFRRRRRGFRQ
Put plainly: Radioligand binding experiment for α2C-adrenoceptor ([3H]raulwolscine, CHO cell membranes). The following applies: [3H]raulwolscine binding; for IC50: read-out: h-α2C pIC50 (converted). How it is done:
as §1, §3, §4, §2

T1 sequence (P31645 whole entry): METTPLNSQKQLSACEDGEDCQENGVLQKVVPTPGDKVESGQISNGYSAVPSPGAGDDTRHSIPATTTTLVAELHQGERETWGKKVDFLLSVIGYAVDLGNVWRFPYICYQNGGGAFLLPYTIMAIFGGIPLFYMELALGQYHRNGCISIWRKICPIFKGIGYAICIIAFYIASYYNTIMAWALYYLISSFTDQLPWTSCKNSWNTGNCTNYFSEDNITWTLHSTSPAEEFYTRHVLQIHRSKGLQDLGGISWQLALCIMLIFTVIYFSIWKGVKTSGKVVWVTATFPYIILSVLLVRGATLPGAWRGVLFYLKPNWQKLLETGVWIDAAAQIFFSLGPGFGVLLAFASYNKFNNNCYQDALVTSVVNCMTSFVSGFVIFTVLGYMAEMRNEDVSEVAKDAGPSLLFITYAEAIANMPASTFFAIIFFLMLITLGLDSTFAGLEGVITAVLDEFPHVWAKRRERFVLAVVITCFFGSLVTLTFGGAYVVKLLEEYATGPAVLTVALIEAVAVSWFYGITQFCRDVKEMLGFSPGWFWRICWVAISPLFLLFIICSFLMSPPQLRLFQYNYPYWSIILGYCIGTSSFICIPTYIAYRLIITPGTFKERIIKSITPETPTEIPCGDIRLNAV

`COCCN(C)Cc1ccc(-n2ccnc(NC3CCN(C/C(C)=C/c4ccccc4)CC3)c2=O)cc1` [1-26]: at 5HT-Transporter, the “h-5HTT pIC50” value was determined as 5.8. For the same molecule, on hα2A receptor, the “h-α2A pIC50” value is 7.2. Also, the “h-α2C pIC50” value on hα2C receptor was determined as 8.7.

`COCCN(C)C(=O)c1ccc(-n2ccnc(NC3CCN(C/C(C)=C/c4ccccc4)CC3)c2=O)cc1` [1-27]: the IC50 on 5HT-Transporter is 501 nM; at hα2A receptor, 31.6 nM; on hα2C receptor, 2.51 nM.

Take `C#CCN(C)C(=O)Cn1ccnc(NC2CCN(C/C(C)=C/c3ccccc3)CC2)c1=O` [1-28]: the results for the IC50 on 5HT-Transporter, on hα2A receptor and at hα2C receptor were 2510 nM, 79.4 nM and 5.01 nM, respectively.

`CC(=O)NCc1ccc(-n2ccnc(NC3CCN(C/C(C)=C/c4ccccc4)CC3)c2=O)cc1` [1-29]: the “h-5HTT pIC50” value at 5HT-Transporter is 6.0. Also, at hα2A receptor, the “h-α2A pIC50” value stood at 7.0. Moreover, the “h-α2C pIC50” value at hα2C receptor is 8.1.

Regarding `CC(=O)NCc1ccc(Cn2ccnc(NC3CCN(C/C(C)=C/c4ccccc4)CC3)c2=O)cc1` [1-30], the IC50 on 5HT-Transporter is 1260 nM; at hα2A receptor, 158 nM; at hα2C receptor, 31.6 nM.

As to `CCCC(=O)NCc1ccc(Cn2ccnc(NC3CCN(C/C(C)=C/c4ccccc4)CC3)c2=O)cc1` [1-31], the figures for the IC50 at 5HT-Transporter, at hα2A receptor and at hα2C receptor were 794 nM, 200 nM and 50.1 nM, respectively.

For `CCCC(=O)NCCCn1ccnc(NC2CCN(C/C(C)=C/c3ccccc3)CC2)c1=O` [1-32], the IC50 is 2510 nM at 5HT-Transporter, 200 nM on hα2A receptor and 12.6 nM on hα2C receptor.

As for `C/C(=C\c1ccccc1)CN1CCC(Nc2nccn(CCCNC(=O)CC3CCCC3)c2=O)CC1` [1-33], the IC50 at 5HT-Transporter is 794 nM; on hα2A receptor, 200 nM; on hα2C receptor, 12.6 nM.

As to `C/C(=C\c1ccccc1)CN1CCC(Nc2nccn(-c3cccc(NC(=O)CC4CCCC4)c3)c2=O)CC1` [1-34], the IC50 at 5HT-Transporter is 631 nM; on hα2A receptor, 63.1 nM; on hα2C receptor, 20 nM.

For `C/C(=C\c1ccccc1)CN1CCC(Nc2nccn(-c3ccc(NC(=O)CC4CCCC4)cc3)c2=O)CC1` [1-35], the IC50 at 5HT-Transporter is 1260 nM; on hα2A receptor, 251 nM; at hα2C receptor, 50.1 nM.

As to `C/C(=C\c1ccccc1)CN1CCC(Nc2nccn(Cc3ccc(CNC(=O)C4CCCCC4)cc3)c2=O)CC1` [1-36], the results for the IC50 at 5HT-Transporter, at hα2A receptor and on hα2C receptor were 398 nM, 158 nM and 39.8 nM, respectively.

Turning to `CC(=O)CN(C)CCCn1ccnc(NC2CCN(C/C(C)=C/c3ccccc3)CC2)c1=O` [1-38], the IC50 on 5HT-Transporter was 7940 nM; at hα2A receptor it was 316 nM; on hα2C receptor it was 12.6 nM.

`C/C(=C\c1ccccc1)CN1CCC(Nc2nccn(CCCNc3ccccc3)c2=O)CC1` [1-39]: the IC50 on 5HT-Transporter is 200 nM; at hα2A receptor, 79.4 nM; at hα2C receptor it was 7.94 nM.

For the molecule `C/C(=C\c1ccccc1)CN1CCC(Nc2nccn(CC(=O)Nc3ccccc3)c2=O)CC1` [1-40], the IC50 at 5HT-Transporter was 1000 nM; on hα2A receptor, 50.1 nM; on hα2C receptor, 3.16 nM.

On to `C/C(=C\c1ccccc1)CN1CCC(Nc2nccn(CC(=O)N(C)c3ccccc3)c2=O)CC1` [1-41], for which the IC50 is 398 nM on 5HT-Transporter, 100 nM at hα2A receptor and 3.16 nM at hα2C receptor.

`C/C(=C\c1ccccc1)CN1CCC(Nc2nccn(CC(=O)Nc3ccc(F)cc3)c2=O)CC1` [1-42]: the IC50 at 5HT-Transporter is 501 nM; at hα2A receptor, 100 nM; at hα2C receptor, 3.98 nM.

For the molecule `C/C(=C\c1ccccc1)CN1CCC(Nc2nccn(-c3cccc(Nc4ccc(F)cc4)c3)c2=O)CC1` [1-43], the IC50 was 50.1 nM on 5HT-Transporter, 12.6 nM on hα2A receptor and 3.16 nM on hα2C receptor.

As for `C/C(=C\c1ccccc1)CN1CCC(Nc2nccn(-c3ccc(Nc4ccc(F)cc4)cc3)c2=O)CC1` [1-44], the IC50 at 5HT-Transporter was 794 nM; at hα2A receptor, 100 nM; at hα2C receptor it was 5.01 nM.

With `C/C(=C\c1ccccc1)CN1CCC(Nc2nccn(CC(=O)Nc3ccc(N4CCOCC4)cc3)c2=O)CC1` [1-45], the figures for the IC50 at 5HT-Transporter, on hα2A receptor and on hα2C receptor were 2000 nM, 126 nM and 39.8 nM, respectively.

The values are drawn from US20090111801A1, “SUBSTITUTED PYRAZINONE DERIVATIVES FOR USE AS A MEDICINE” (Janssen Pharmaceutica N.V., priority 2006, published 2009).
